ChEMBL document CHEMBL3763146 (J Med Chem, 2016)

What was measured:
[1] = target: Beta-3 adrenergic receptor (Canis lupus familiaris, UniProt O02662); assay: Agonist activity at dog beta3 adrenergic receptor expressed in CHO cells assessed as accumulation of cAMP after 30 mins by TR-FRET assay; format: functional, cell-based
[2] = target: T1, Beta-3 adrenergic receptor (Homo sapiens, UniProt P13945); assay: Agonist activity at human adrenergic beta3 receptor expressed in CHO cells assessed as accumulation of cAMP after 30 mins by TR-FRET assay in presence of 40% serum relative to (R)-(-)-isoproterenol; format: functional, cell-based
Target sequence in this assay (P13945 whole entry, looked up): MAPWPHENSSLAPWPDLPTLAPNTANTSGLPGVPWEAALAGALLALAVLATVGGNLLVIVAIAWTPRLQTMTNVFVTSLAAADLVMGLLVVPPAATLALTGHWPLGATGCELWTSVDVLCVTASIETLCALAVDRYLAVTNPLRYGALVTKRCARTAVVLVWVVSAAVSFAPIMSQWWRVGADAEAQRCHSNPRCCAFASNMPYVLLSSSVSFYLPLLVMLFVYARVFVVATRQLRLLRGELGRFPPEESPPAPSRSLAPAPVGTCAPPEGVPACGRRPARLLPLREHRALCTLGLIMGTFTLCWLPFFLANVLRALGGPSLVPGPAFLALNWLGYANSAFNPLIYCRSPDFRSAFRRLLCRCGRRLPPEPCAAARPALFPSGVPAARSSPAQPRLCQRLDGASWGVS

[3] = target: Beta-3 adrenergic receptor (Macaca mulatta) (UniProt Q28524); assay: Agonist activity at rhesus monkey beta3 adrenergic receptor expressed in CHO cells assessed as accumulation of cAMP after 30 mins by TR-FRET assay in presence of 40% serum relative to (R)-(-)-isoproterenol; format: functional, cell-based
[4] = Induction of phospholidosis in human HepG2 cells incubated overnight by […] in presence of fluorescent labeled phospholipid probe NBD-PE; format: cell-based; details: read-out: A50
[5] = target: Sodium-dependent serotonin transporter (Homo sapiens, UniProt P31645); assay: Inhibition of human SERT expressed in HEK293 cells preincubated for 30 mins followed by fluorescent substrate addition measured after 30 mins by plate reader analysis; format: cell-based
[6] = Distribution coefficient, logD of the compound at pH 7.4; format: physicochemical; details: octanol/water
[7] = target: Voltage-dependent L-type calcium channel subunit alpha-1C (Homo sapiens, UniProt Q13936); assay: Displacement of [3H]-diltiazem from human Cav1.2 channel
[8] = target: Voltage-gated inwardly rectifying potassium channel KCNH2 (Homo sapiens, UniProt Q12809); assay: Binding affinity to human ERG channel
Cytochrome P450 3A4 = Cytochrome P450 3A4 (Homo sapiens, UniProt P08684); assay: Inhibition of CYP3A4 in human liver microsomes assessed as testosterone 6beta-hydroxylation; format: ADME
Cytochrome P450 2D6 = Cytochrome P450 2D6 (Homo sapiens, UniProt P10635); assay: Inhibition of CYP2D6 in human liver microsomes assessed as dextraomethorphan O-demethylation; format: ADME
Cytochrome P450 2C9 = Cytochrome P450 2C9 (Homo sapiens, UniProt P11712); assay: Inhibition of CYP2C9 in human liver microsomes assessed as diclofenac alpha'-hydroxylation; format: ADME
[9] = target: T1, Beta-3 adrenergic receptor; assay: Agonist activity at human beta3 adrenergic receptor expressed in CHO cells assessed as accumulation of cAMP after 30 mins by TR-FRET assay relative to (R)-(-)-isoproterenol; format: functional, cell-based
Target sequence in this assay (P13945 whole entry, looked up): as above

Rattus norvegicus [10] = assay: Unbound clearance in rat at 1 mg/kg, iv or 2 mg/kg, po; format: ADME, organism-based; details: in vivo
Canis familiaris [11] = assay: Unbound clearance in dog at 0.5 mg/kg, iv or 2 mg/kg, po; format: ADME, organism-based, Canis lupus familiaris; details: in vivo
Rhesus monkey [12] = assay: Unbound clearance in rhesus monkey at 0.5 mg/kg, iv or 2 mg/kg, po; format: ADME, organism-based, Macaca mulatta; details: in vivo
Rattus norvegicus [13] = assay: Dose normalized total AUC in rat at 2 mg/kg, po; format: ADME, organism-based; details: in vivo
Canis familiaris [14] = assay: Dose normalized total AUC in dog at 2 mg/kg, po; format: ADME, organism-based, Canis lupus familiaris; details: in vivo
Rhesus monkey [15] = assay: Dose normalized total AUC in rhesus monkey at 2 mg/kg, po; format: ADME, organism-based, Macaca mulatta; details: in vivo
[16] = Oral bioavailability in rat at 2 mg/kg; format: ADME, organism-based; details: in vivo
[17] = Oral bioavailability in dog at 2 mg/kg; format: ADME, organism-based, Canis lupus familiaris; details: in vivo
[18] = Oral bioavailability in rhesus monkey at 2 mg/kg; format: ADME, organism-based, Macaca mulatta; details: in vivo
[19] = Fraction unbound in rat at 1 mg/kg, iv or 2 mg/kg, po; format: ADME, organism-based; details: in vivo
[20] = Fraction unbound in dog at 0.5 mg/kg, iv or 2 mg/kg, po; format: ADME, organism-based, Canis lupus familiaris; details: in vivo
[21] = Fraction unbound in rhesus monkey at 0.5 mg/kg, iv or 2 mg/kg, po; format: ADME, organism-based, Macaca mulatta; details: in vivo
[22] = target: T2, Beta-3 adrenergic receptor (Rattus norvegicus, UniProt P26255); assay: Agonist activity at rat beta3 adrenergic receptor expressed in CHO cells assessed as accumulation of cAMP after 30 mins by TR-FRET assay; format: functional, cell-based
[23] = target: Beta-3 adrenergic receptor (Rattus norvegicus) (UniProt P26255); assay: Agonist activity at rat beta3 adrenergic receptor expressed in CHO cells assessed as accumulation of cAMP after 30 mins by TR-FRET assay relative to (R)-(-)-isoproterenol; format: functional, cell-based
[24] = target: T3, Beta-3 adrenergic receptor (Macaca mulatta, UniProt Q28524); assay: Agonist activity at rhesus monkey beta3 adrenergic receptor expressed in CHO cells assessed as accumulation of cAMP after 30 mins by TR-FRET assay; format: functional, cell-based
[25] = target: Beta-3 adrenergic receptor (Macaca mulatta) (UniProt Q28524); assay: Agonist activity at rhesus monkey beta3 adrenergic receptor expressed in CHO cells assessed as accumulation of cAMP after 30 mins by TR-FRET assay relative to (R)-(-)-isoproterenol; format: functional, cell-based
[26] = target: T3, Beta-3 adrenergic receptor; assay: Agonist activity at rhesus monkey beta3 adrenergic receptor expressed in CHO cells assessed as accumulation of cAMP after 30 mins by TR-FRET assay in presence of 40% serum; format: functional, cell-based
[27] = Solubility of the compound in buffer at pH >= […]; format: physicochemical
[28] = target: Beta-3 adrenergic receptor (Rattus norvegicus) (UniProt P26255); assay: Agonist activity at rat beta3 adrenergic receptor expressed in CHO cells assessed as accumulation of cAMP after 30 mins by TR-FRET assay in presence of 40% serum relative to (R)-(-)-isoproterenol; format: functional, cell-based
[29] = target: Sodium channel protein type 2 subunit alpha (Homo sapiens, UniProt Q99250); assay: Inhibition of human Nav1.2 channel expressed in Xenopus oocytes by two-intracellular microelectrode voltage clamp method; format: cell-based
[30] = target: T1, Beta-3 adrenergic receptor; assay: Agonist activity at human beta3 adrenergic receptor expressed in CHO cells assessed as accumulation of cAMP after 30 mins by TR-FRET assay; format: functional, cell-based
Target sequence in this assay (P13945 whole entry): as the sequence (P13945 whole entry, looked up) above

[31] = Plasma clearance in rat at 1 mg/kg, iv or 2 mg/kg, po; format: ADME, organism-based
[32] = Plasma clearance in dog at 0.5 mg/kg, iv or 2 mg/kg, po; format: ADME, organism-based, Canis lupus familiaris
[33] = Stability in human plasma assessed as parent compound remaining at 24 hrs by LC-MS analysis; format: ADME, cell-free; details: read-out: Stability
[34] = Plasma clearance in rhesus monkey at 0.5 mg/kg, iv or 2 mg/kg, po; format: ADME, organism-based, Macaca mulatta
[35] = Half life in rat at 1 mg/kg, iv or 2 mg/kg, po; format: ADME, organism-based; details: in vivo
[36] = Half life in dog at 0.5 mg/kg, iv or 2 mg/kg, po; format: ADME, organism-based, Canis lupus familiaris; details: in vivo
[37] = Half life in rhesus monkey at 0.5 mg/kg, iv or 2 mg/kg, po; format: ADME, organism-based, Macaca mulatta; details: in vivo
Rattus norvegicus [38] = assay: Dose normalized fAUC in rat at 2 mg/kg, po; format: ADME, organism-based; details: in vivo
Canis familiaris [39] = assay: Dose normalized fAUC in dog at 2 mg/kg, po; format: ADME, organism-based, Canis lupus familiaris; details: in vivo
Rhesus monkey [40] = assay: Dose normalized fAUC in rhesus monkey at 2 mg/kg, po; format: ADME, organism-based, Macaca mulatta; details: in vivo
[41] = Intrinsic clearance in rat liver microsomes; format: ADME; details: read-out: CLH
[42] = Intrinsic clearance in dog liver microsomes; format: ADME, Canis lupus familiaris; details: read-out: CLH
[43] = Intrinsic clearance in human liver microsomes; format: ADME; details: read-out: CLH
[44] = Intrinsic clearance in rhesus monkey liver microsomes; format: ADME, Macaca mulatta; details: read-out: CLH
[45] = Stability in rat plasma assessed as parent compound remaining at 24 hrs by LC-MS analysis; format: ADME, cell-free; details: read-out: Stability
[46] = Stability in dog plasma assessed as parent compound remaining at 24 hrs by LC-MS analysis; format: ADME, cell-free, Canis lupus familiaris; details: read-out: Stability
[47] = Stability in rhesus monkey plasma assessed as parent compound remaining at 24 hrs by LC-MS analysis; format: ADME, cell-free, Macaca mulatta; details: read-out: Stability
[48] = Inhibition of rat choline transporter
[49] = target: T2, Beta-3 adrenergic receptor; assay: Agonist activity at rat beta3 adrenergic receptor expressed in CHO cells assessed as accumulation of cAMP after 30 mins by TR-FRET assay in presence of 40% serum; format: functional, cell-based
[50] = target: T1, Beta-3 adrenergic receptor; assay: Agonist activity at human adrenergic beta3 receptor expressed in CHO cells assessed as accumulation of cAMP after 30 mins by TR-FRET assay in presence of 40% serum; format: functional, cell-based
Target sequence in this assay (P13945 whole entry): as the sequence (P13945 whole entry, looked up) above

Rattus norvegicus [51] = assay: Increase in detrusor muscle relaxation in iv infused Sprague-Dawley rat acetic acid-induced bladder hyperreflexia model assessed as decrease in micturition pressure measured over 30 to 45 mins; format: functional, organism-based
Rattus norvegicus [52] = assay: Increase in detrusor muscle relaxation in iv infused Sprague-Dawley rat acetic acid-induced bladder hyperreflexia model assessed as increase in functional bladder capacity measured over 30 to 45 mins; format: organism-based
[53] = target: Beta-2 adrenergic receptor (Homo sapiens, UniProt P07550)
Description: Displacement of [125]I-cyanopindolol from human recombinant beta2 adrenergic receptor after 1 hr by scintillation counting method

[54] = target: Beta-1 adrenergic receptor (Homo sapiens, UniProt P08588)
Description: Displacement of [125]I-cyanopindolol from recombinant human beta1 adrenergic receptor after 1 hr by scintillation counting method

T2 sequence (P26255 whole entry): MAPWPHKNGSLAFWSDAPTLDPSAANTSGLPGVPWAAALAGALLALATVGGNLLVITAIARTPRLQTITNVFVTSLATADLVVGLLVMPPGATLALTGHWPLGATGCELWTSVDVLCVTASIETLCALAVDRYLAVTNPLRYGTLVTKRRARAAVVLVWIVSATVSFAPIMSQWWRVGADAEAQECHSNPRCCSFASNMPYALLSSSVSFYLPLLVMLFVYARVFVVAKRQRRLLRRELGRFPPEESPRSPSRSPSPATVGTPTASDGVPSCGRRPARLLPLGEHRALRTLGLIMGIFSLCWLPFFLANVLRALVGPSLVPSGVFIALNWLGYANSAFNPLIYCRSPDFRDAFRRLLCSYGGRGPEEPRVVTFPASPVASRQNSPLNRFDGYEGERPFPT
Beta-3 adrenergic receptor (Rattus norvegicus), sequence (P26255 whole entry): as above
T3 sequence (Q28524 whole entry): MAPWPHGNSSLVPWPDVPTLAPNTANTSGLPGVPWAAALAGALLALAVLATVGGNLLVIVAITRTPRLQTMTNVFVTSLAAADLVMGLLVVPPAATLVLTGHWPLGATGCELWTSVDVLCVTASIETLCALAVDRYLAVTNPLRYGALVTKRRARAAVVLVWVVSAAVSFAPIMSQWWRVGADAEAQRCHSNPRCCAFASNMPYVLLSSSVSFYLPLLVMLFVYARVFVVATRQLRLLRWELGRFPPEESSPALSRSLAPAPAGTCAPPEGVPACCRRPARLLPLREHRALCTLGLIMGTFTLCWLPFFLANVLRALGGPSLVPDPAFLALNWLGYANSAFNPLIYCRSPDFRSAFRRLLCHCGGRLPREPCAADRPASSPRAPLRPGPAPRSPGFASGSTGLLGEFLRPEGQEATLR
Beta-3 adrenergic receptor (Macaca mulatta), sequence (Q28524 whole entry): as above
Voltage-gated inwardly rectifying potassium channel KCNH2, sequence (Q12809 whole entry): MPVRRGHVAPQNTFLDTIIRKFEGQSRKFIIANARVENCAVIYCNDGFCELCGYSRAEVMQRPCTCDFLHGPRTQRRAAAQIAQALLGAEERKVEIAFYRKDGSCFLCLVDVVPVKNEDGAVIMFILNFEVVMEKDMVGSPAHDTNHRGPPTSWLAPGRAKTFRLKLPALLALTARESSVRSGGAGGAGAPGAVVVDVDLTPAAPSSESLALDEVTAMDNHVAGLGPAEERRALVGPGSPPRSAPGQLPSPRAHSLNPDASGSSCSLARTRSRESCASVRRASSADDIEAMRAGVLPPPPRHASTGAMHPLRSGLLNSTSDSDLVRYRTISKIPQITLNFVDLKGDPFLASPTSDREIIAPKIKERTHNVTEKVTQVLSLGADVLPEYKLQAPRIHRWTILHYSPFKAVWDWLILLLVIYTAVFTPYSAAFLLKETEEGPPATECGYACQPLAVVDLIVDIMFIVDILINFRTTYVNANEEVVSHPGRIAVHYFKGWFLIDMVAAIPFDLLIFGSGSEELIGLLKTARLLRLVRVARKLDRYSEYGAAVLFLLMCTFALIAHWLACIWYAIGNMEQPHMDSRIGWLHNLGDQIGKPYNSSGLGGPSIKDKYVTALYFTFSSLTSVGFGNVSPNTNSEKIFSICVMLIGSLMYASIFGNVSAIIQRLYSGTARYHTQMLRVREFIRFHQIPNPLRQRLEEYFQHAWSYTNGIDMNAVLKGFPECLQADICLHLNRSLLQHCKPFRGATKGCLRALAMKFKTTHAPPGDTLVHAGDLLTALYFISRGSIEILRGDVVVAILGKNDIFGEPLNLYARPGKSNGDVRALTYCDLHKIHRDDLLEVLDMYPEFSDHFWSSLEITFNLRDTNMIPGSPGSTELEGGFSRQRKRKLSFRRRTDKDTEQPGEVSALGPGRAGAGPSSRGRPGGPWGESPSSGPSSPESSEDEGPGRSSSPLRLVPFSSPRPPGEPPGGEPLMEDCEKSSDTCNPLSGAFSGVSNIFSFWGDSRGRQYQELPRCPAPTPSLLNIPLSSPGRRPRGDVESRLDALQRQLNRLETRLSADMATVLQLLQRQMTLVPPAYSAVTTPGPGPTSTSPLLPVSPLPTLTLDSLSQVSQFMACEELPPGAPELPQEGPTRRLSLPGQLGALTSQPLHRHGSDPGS
Beta-3 adrenergic receptor (Canis lupus familiaris, UniProt O02662), sequence (O02662 whole entry): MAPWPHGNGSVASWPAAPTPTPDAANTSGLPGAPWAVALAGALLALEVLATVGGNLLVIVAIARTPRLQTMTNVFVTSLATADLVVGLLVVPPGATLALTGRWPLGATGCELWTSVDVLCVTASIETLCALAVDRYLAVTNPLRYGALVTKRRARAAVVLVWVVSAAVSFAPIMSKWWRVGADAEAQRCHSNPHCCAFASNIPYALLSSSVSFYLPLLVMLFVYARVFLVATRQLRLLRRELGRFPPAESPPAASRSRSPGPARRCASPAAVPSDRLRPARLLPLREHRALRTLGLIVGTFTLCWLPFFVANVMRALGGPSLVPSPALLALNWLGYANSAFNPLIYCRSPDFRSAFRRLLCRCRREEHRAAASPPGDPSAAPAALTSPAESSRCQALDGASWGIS
Sodium-dependent serotonin transporter, sequence (P31645 whole entry): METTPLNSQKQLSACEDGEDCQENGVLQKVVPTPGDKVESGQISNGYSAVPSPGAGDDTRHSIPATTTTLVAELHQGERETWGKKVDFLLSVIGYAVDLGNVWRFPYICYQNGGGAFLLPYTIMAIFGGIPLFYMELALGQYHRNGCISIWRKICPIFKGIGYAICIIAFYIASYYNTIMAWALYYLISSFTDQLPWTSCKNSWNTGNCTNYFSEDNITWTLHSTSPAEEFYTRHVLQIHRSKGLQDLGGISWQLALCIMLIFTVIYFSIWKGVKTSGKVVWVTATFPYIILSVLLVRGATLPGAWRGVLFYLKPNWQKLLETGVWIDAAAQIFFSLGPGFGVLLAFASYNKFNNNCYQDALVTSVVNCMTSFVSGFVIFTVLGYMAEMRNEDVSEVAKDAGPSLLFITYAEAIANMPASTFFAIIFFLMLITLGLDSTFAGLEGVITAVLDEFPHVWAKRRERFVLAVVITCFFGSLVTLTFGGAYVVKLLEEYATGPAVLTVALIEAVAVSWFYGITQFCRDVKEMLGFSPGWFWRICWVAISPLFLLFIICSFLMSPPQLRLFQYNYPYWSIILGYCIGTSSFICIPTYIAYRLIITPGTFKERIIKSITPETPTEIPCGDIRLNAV
Cytochrome P450 2C9, sequence (P11712 whole entry): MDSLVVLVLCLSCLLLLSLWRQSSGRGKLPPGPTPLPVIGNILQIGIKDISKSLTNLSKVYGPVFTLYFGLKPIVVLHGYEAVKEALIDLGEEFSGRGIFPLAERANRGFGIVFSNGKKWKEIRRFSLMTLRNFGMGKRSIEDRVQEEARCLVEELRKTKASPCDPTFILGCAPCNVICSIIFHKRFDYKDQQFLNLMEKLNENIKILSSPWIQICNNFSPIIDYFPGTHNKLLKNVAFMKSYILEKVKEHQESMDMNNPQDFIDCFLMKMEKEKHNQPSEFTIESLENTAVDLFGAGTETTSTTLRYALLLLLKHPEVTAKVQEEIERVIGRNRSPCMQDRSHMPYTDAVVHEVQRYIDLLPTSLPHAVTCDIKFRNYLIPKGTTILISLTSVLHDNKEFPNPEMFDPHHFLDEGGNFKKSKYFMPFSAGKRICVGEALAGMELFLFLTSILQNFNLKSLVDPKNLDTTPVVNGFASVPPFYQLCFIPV
Cytochrome P450 3A4, sequence (P08684 whole entry): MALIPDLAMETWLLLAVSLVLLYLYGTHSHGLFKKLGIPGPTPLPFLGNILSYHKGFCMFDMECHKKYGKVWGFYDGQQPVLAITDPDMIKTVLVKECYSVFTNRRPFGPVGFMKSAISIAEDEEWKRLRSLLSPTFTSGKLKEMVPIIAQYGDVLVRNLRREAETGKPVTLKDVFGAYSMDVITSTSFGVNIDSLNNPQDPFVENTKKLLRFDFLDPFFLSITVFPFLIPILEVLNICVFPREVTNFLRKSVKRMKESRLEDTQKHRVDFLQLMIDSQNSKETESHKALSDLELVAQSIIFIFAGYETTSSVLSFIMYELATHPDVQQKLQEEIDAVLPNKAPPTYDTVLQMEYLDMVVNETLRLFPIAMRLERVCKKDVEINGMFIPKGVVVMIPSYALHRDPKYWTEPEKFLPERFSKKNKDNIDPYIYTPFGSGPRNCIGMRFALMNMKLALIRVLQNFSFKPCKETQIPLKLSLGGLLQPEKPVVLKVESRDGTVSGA

Work on `O=S(=O)(Nc1ccc(CCNC[C@H](O)c2cccnc2)cc1)c1ccc(-c2nc(-c3ccc(C(F)(F)F)cc3)cs2)cc1` yielded an EC50 [1] of 25 nM, a max activation [2] of 106% and a max activation [3] of 17%. For the same compound, the AC50 [4] was 560 nM, the IC50 [5] was 5000 nM and the logD [6] was 4.7. For the same compound, the IC50 [7] was 1700 nM, the IC50 [8] was 220 nM and the IC50 (Cytochrome P450 3A4) was 9300 nM. The IC50 (Cytochrome P450 2D6) was 11000 nM, the IC50 (Cytochrome P450 2C9) was 24000 nM and the max activation [9] was 93%. For the same compound, the CL free (Rattus norvegicus [10]) was over 3100 mL/min/kg, the CL free (Canis familiaris [11]) was over 1000 mL/min/kg and the CL free (Rhesus monkey [12]) was over 950 mL/min/kg. It also gave an AUC/dose (Rattus norvegicus [13]) of 70 nM·h/mg/kg, an AUC/dose (Canis familiaris [14]) of 290 nM·h/mg/kg and an AUC/dose (Rhesus monkey [15]) of 50 nM·h/mg/kg. For the same compound, the bioavailability [16] was 17%, the bioavailability [17] was 27% and the bioavailability [18] was 4%. It also gave a fraction unbound [19] of at most 0.02, a fraction unbound [20] of at most 0.02 and a fraction unbound [21] of at most 0.02. For the same compound, the EC50 [22] was 3400 nM, the max activation [23] was 17% and the EC50 [24] was 0.43 nM. For the same compound, the max activation [25] was 81%, the EC50 [26] was 17 nM and the solubility [27] was under 100 µg/mL.
Work on `C[C@@H](C(=O)Nc1ccc(C[C@@H]2CC[C@H]([C@H](O)c3ccccc3)N2)cc1)n1ncccc1=O` yielded an EC50 [1] of 39 nM, a max activation [2] of 98% and a max activation [28] of 83%. The max activation [3] was 91%, the AC50 [4] was 42000 nM and the IC50 [5] was over 10000 nM. For the same compound, the logD [6] was 1.3, the IC50 [29] was over 30000 nM and the IC50 [7] was over 30000 nM. The IC50 [8] was over 30000 nM, the max activation [9] was 92% and the EC50 [30] was 2.7 nM. It also gave a clearance [31] of 36 mL/min/kg, a clearance [32] of 23 mL/min/kg and a remaining at 24 h [33] of 100%. It also gave a clearance [34] of 33 mL/min/kg, a CL free (Rattus norvegicus [10]) of 180 mL/min/kg and a CL free (Canis familiaris [11]) of 59 mL/min/kg. For the same compound, the CL free (Rhesus monkey [12]) was 46 mL/min/kg, the half-life [35] was 2 h and the half-life [36] was 9 h. For the same compound, the half-life [37] was 9 h, the AUC/dose (Rattus norvegicus [13]) was 100 nM·h/mg/kg and the AUC/dose (Canis familiaris [14]) was 290 nM·h/mg/kg. The AUC/dose (Rhesus monkey [15]) was 300 nM·h/mg/kg, the fAUC/dose (Rattus norvegicus [38]) was 20 nM·h/mg/kg and the fAUC/dose (Canis familiaris [39]) was 113 nM·h/mg/kg. For the same compound, the fAUC/dose (Rhesus monkey [40]) was 213 nM·h/mg/kg, the bioavailability [16] was 10% and the bioavailability [17] was 91%. The bioavailability [18] was 29%, the fraction unbound [19] was 0.2 and the fraction unbound [20] was 0.39. For the same compound, the fraction unbound [21] was 0.71, the CLint scaled [41] was 31 mL/min/kg and the CLint scaled [42] was 34 mL/min/kg. The CLint scaled [43] was 10 mL/min/kg, the CLint scaled [44] was 17 mL/min/kg and the remaining at 24 h [45] was 95%. For the same compound, the remaining at 24 h [46] was 77%, the remaining at 24 h [47] was 99% and the IC50 [48] was 2300 nM. It also gave an EC50 [22] of 531 nM, a max activation [23] of 85% and an EC50 [24] of 2.5 nM. It also gave a max activation [25] of 91%, an EC50 [49] of 245 nM and an EC50 [26] of 12 nM. For the same compound, the EC50 [50] was 2.1 nM, the Activity (Rattus norvegicus [51]) was “Dose-dependent effect” and the Activity (Rattus norvegicus [52]) was “Dose-dependent effect”. For the same compound, the IC50 [53] was over 20000 nM and the IC50 [54] was over 20000 nM.
